Results as given in PubChem BioAssay AID248 (DTP/NCI, 2004).
Values joined by “and” are separate entries in the source; they are usually repeats but may differ in a detail not shown here. Identical values can stand only once. Toxic doses and inconclusive results are not listed. No stated cut-off is given here; in the data, active means T/C of 150% or more; inactive means T/C below 125%.

System: L1210 leukemia ip in BDF1 mice, survival T/C
Experiment: NCI In Vivo Anticancer Drug Screen. Data for tumor model L1210 Leukemia (intraperitoneal) in B6D2F1 (BDF1) mice
Conditions: endpoint: mean survival time, higher = longer survival
Outline: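 Read-out is survival time, reported as the treated-group measurement over the vehicle-control measurement.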

[1] = dose: 100.0 mg/kg/injection, schedule: Q04DX002 (ip), vehicle: saline
[2] = dose: 200.0 mg/kg/injection, schedule: Q04DX002 (ip), vehicle: saline
[3] = dose: 400.0 mg/kg/injection, schedule: Q04DX002 (ip), vehicle: saline
[4] = dose: 100.0 mg/kg/injection, schedule: Q04DX002 (ip), vehicle: Klucel (hydroxypropylcellulose) (HPC)
[5] = dose: 200.0 mg/kg/injection, schedule: Q04DX002 (ip), vehicle: Klucel (hydroxypropylcellulose) (HPC)
[6] = dose: 400.0 mg/kg/injection, schedule: Q04DX002 (ip), vehicle: Klucel (hydroxypropylcellulose) (HPC)
[7] = dose: 100.0 mg/kg/injection, schedule: Q04DX003 (ip), vehicle: saline with Tween-80
[8] = dose: 200.0 mg/kg/injection, schedule: Q04DX003 (ip), vehicle: saline with Tween-80
[9] = dose: 100.0 mg/kg/injection, schedule: Q01DX009 (ip), vehicle: saline with Tween-80
[10] = dose: 200.0 mg/kg/injection, schedule: Q01DX009 (ip), vehicle: saline with Tween-80
[11] = dose: 400.0 mg/kg/injection, schedule: Q01DX009 (ip), vehicle: saline with Tween-80
[12] = dose: 100.0 mg/kg/injection, schedule: Q01DX009 (ip), vehicle: Klucel (hydroxypropylcellulose) (HPC)
[13] = dose: 200.0 mg/kg/injection, schedule: Q01DX009 (ip), vehicle: Klucel (hydroxypropylcellulose) (HPC)
[14] = dose: 400.0 mg/kg/injection, schedule: Q01DX009 (ip), vehicle: Klucel (hydroxypropylcellulose) (HPC)
[15] = dose: 100.0 mg/kg/injection, schedule: Q04DX003 (ip), vehicle: saline
[16] = dose: 200.0 mg/kg/injection, schedule: Q04DX003 (ip), vehicle: saline
[17] = dose: 400.0 mg/kg/injection, schedule: Q04DX003 (ip), vehicle: saline

Measured: T/C

CC(C)P(CP(=S)(c1ccccc1)c1ccccc1)c1ccccc1 (stereo not given)
inactive: dose: 100.0 mg/kg/injection, schedule: Q04DX003 (ip), vehicle: carboxymethylcellulose (CMC) 98 % of control | dose: 200.0 mg/kg/injection, schedule: Q04DX003 (ip), vehicle: carboxymethylcellulose (CMC) 100 % of control | dose: 400.0 mg/kg/injection, schedule: Q04DX003 (ip), vehicle: carboxymethylcellulose (CMC) 93 % of control

O=C(O)C1CCC2(CCCCC2)CC1
inactive: dose: 25.0 mg/kg/injection, schedule: Q01DX009 (ip), vehicle: water 101 % of control | dose: 50.0 mg/kg/injection, schedule: Q01DX009 (ip), vehicle: water 93 % of control | dose: 100.0 mg/kg/injection, schedule: Q01DX009 (ip), vehicle: water 98 % of control | dose: 200.0 mg/kg/injection, schedule: Q01DX009 (ip), vehicle: water 92 % of control

Cn1c2ccc(Cl)cc2c2nnc(NCCCO)nc21
inactive: [1] 97 % of control | [2] 89 % of control | [3] 93 % of control

N#CCCN(C(=O)Nc1cc(C(F)(F)F)ccc1Cl)C1CCCCC1
inactive: [4] 96 % of control | [5] 96 % of control | [6] 105 % of control

O=C1c2ccccc2C(C(O)(C(F)(F)F)C(F)(F)F)c2ccccc21
inactive: [7] 92 % of control | [8] 97 % of control

O=NN(CCCl)C(=O)NC1CCC(CC(=O)O)CC1 (stereo not given)
active: dose: 5.3 mg/kg/injection, schedule: Q01DX001 (ip), vehicle: Klucel (hydroxypropylcellulose) (HPC) 171 % of control | dose: 12.0 mg/kg/injection, schedule: Q01DX001 (ip), vehicle: Klucel (hydroxypropylcellulose) (HPC) 235 % of control and 536 % of control | dose: 15.0 mg/kg/injection, schedule: Q01DX001 (ip), vehicle: carboxymethylcellulose (CMC) 151 % of control and 178 % of control | dose: 18.0 mg/kg/injection, schedule: Q01DX001 (ip), vehicle: Klucel (hydroxypropylcellulose) (HPC) 352 % of control and 377 % of control | dose: 18.0 mg/kg/injection, schedule: Q01DX001 (ip), vehicle: carboxymethylcellulose (CMC) 403 % of control | dose: 23.0 mg/kg/injection, schedule: Q01DX001 (ip), vehicle: carboxymethylcellulose (CMC) 336 % of control and 351 % of control | dose: 26.0 mg/kg/injection, schedule: Q01DX001 (ip), vehicle: Klucel (hydroxypropylcellulose) (HPC) 352 % of control and 439 % of control | dose: 26.0 mg/kg/injection, schedule: Q01DX001 (ip), vehicle: carboxymethylcellulose (CMC) 454 % of control | dose: 34.0 mg/kg/injection, schedule: Q01DX001 (ip), vehicle: carboxymethylcellulose (CMC) 445 % of control and 454 % of control | dose: 40.0 mg/kg/injection, schedule: Q01DX001 (ip), vehicle: Klucel (hydroxypropylcellulose) (HPC) 319 % of control and 381 % of control | dose: 40.0 mg/kg/injection, schedule: Q01DX001 (ip), vehicle: carboxymethylcellulose (CMC) 418 % of control | dose: 51.0 mg/kg/injection, schedule: Q01DX001 (ip), vehicle: carboxymethylcellulose (CMC) 413 % of control and 476 % of control | dose: 77.0 mg/kg/injection, schedule: Q01DX001 (ip), vehicle: carboxymethylcellulose (CMC) 175 % of control and 258 % of control
111 % of control and 202 % of control: dose: 60.0 mg/kg/injection, schedule: Q01DX001 (ip), vehicle: Klucel (hydroxypropylcellulose) (HPC)
inactive: dose: 3.5 mg/kg/injection, schedule: Q01DX001 (ip), vehicle: Klucel (hydroxypropylcellulose) (HPC) 114 % of control | dose: 60.0 mg/kg/injection, schedule: Q01DX001 (ip), vehicle: carboxymethylcellulose (CMC) 102 % of control

FC(F)(F)c1cccc(NC(=S)N/N=C/c2ccccc2)c1
inactive: [9] 92 % of control | [10] 97 % of control | [11] 94 % of control

Clc1ccc2nc(-c3ccc(Cl)c(Cl)c3)cc(-c3ccccc3)c2c1
inactive: [12] 94 % of control | [13] 86 % of control | [14] 97 % of control

CN(C)c1ccc(C(=O)C#N)cc1
inactive: [12] 100 % of control | [13] 108 % of control | [14] 100 % of control

COC1CCC=CO1 (stereo not given)
inactive: dose: 13.3 mg/kg/injection, schedule: Q01DX Z (ip), vehicle: saline 93 % of control | dose: 20.0 mg/kg/injection, schedule: Q01DX Z (ip), vehicle: saline 105 % of control | dose: 30.0 mg/kg/injection, schedule: Q01DX Z (ip), vehicle: saline 109 % of control

Fc1ccc([P+]2(c3ccc(F)cc3)C=C(c3ccccc3)[P+](c3ccc(F)cc3)(c3ccc(F)cc3)C=C2c2ccccc2)cc1
inactive: dose: 12.5 mg/kg/injection, schedule: Q01DX001 (ip), vehicle: saline with Tween-80 100 % of control | dose: 25.0 mg/kg/injection, schedule: Q01DX001 (ip), vehicle: saline with Tween-80 98 % of control | dose: 50.0 mg/kg/injection, schedule: Q01DX001 (ip), vehicle: saline with Tween-80 100 % of control

CN(C(N)=O)C1CCCC1
inactive: [15] 96 % of control | [16] 91 % of control | [17] 96 % of control

COc1ccc(/C=C/C=C/C(=O)O)cc1OC
inactive: dose: 50.0 mg/kg/injection, schedule: Q01DX001 (ip), vehicle: other 102 % of control | dose: 100.0 mg/kg/injection, schedule: Q01DX001 (ip), vehicle: other 98 % of control | dose: 200.0 mg/kg/injection, schedule: Q01DX001 (ip), vehicle: other 107 % of control | dose: 400.0 mg/kg/injection, schedule: Q01DX001 (ip), vehicle: other 91 % of control

CCCOC(=O)C1OC12CCCCC2 (stereo not given)
inactive: [9] 103 % of control | [10] 100 % of control | [11] 103 % of control

CC1(C)OC2OC(C(O)CO)C(O)C2O1 (stereo not given)
inactive: [1] 86 % of control | [2] 107 % of control | [3] 90 % of control

CCOc1ccn(CC(=O)c2ccc(Cl)s2)c(=O)n1
inactive: [9] 93 % of control | [7] 100 % of control | [10] 90 % of control | [8] 100 % of control | [11] 86 % of control | dose: 400.0 mg/kg/injection, schedule: Q04DX003 (ip), vehicle: saline with Tween-80 101 % of control

CCN(CC)C(=O)N1CCN(c2ccc(OC)cc2)CC1
inactive: dose: 75.0 mg/kg/injection, schedule: Q01DX001 (ip), vehicle: saline 94 % of control | dose: 75.0 mg/kg/injection, schedule: Q04DX003 (ip), vehicle: saline 100 % of control | dose: 150.0 mg/kg/injection, schedule: Q01DX001 (ip), vehicle: saline 100 % of control | dose: 150.0 mg/kg/injection, schedule: Q04DX003 (ip), vehicle: saline 100 % of control | dose: 300.0 mg/kg/injection, schedule: Q01DX001 (ip), vehicle: saline 91 % of control | dose: 300.0 mg/kg/injection, schedule: Q04DX003 (ip), vehicle: saline 110 % of control

CN(C)CCOC(=O)COc1ccc(Cl)cc1
inactive: dose: 25.0 mg/kg/injection, schedule: Q01DX009 (ip), vehicle: saline 96 % of control | dose: 25.0 mg/kg/injection, schedule: Q04DX003 (ip), vehicle: saline 93 % of control | dose: 50.0 mg/kg/injection, schedule: Q01DX009 (ip), vehicle: saline 100 % of control | dose: 50.0 mg/kg/injection, schedule: Q04DX003 (ip), vehicle: saline 98 % of control | dose: 100.0 mg/kg/injection, schedule: Q01DX009 (ip), vehicle: saline 97 % of control | [15] 90 % of control | dose: 200.0 mg/kg/injection, schedule: Q01DX009 (ip), vehicle: saline 96 % of control | [16] 114 % of control | dose: 400.0 mg/kg/injection, schedule: Q01DX009 (ip), vehicle: saline 96 % of control | [17] 101 % of control

Oc1ccc(O)c(CCCCCc2cc(O)ccc2O)c1
inactive: dose: 25.0 mg/kg/injection, schedule: Q01DX009 (ip), vehicle: other 106 % of control | dose: 50.0 mg/kg/injection, schedule: Q01DX009 (ip), vehicle: other 98 % of control | dose: 100.0 mg/kg/injection, schedule: Q01DX001 (ip), vehicle: saline with Tween-80 104 % of control | dose: 100.0 mg/kg/injection, schedule: Q01DX009 (ip), vehicle: other 97 % of control | dose: 200.0 mg/kg/injection, schedule: Q01DX001 (ip), vehicle: saline with Tween-80 100 % of control | dose: 400.0 mg/kg/injection, schedule: Q01DX001 (ip), vehicle: saline with Tween-80 100 % of control

O=C1CC(C(Cl)(Cl)Cl)O1 (stereo not given)
inactive: [4] 89 % of control | [5] 92 % of control | [6] 106 % of control
